Data set [1] can be described thus: Antioxidant activity assessed as DPPH scavenging activity after 30 mins by spectrophotometry. It is filed as physicochemical. Background: DPPH is a stable violet radical that fades when it is reduced.
A short description of data set [2]: Antioxidant activity assessed as DMPD scavenging activity after 15 mins by spectrophotometry. In kind it is physicochemical.
Data set [3] can be described thus: Antiinflammatory activity in human erythrocytes assessed as inhibition of hypotonic solution-induced hemolysis after 10 mins by spectrophotometry. In kind it is functional, cell-based. As to conditions: erythrocyte.
Data set [4] in a line: Antioxidant activity assessed as ABTS scavenging activity after 6 mins by spectrophotometry. It is filed as physicochemical.

As for `O=C(O)CCc1nc(O)c2ccccc2n1`, the IC50 in data set [1] was found to be 1100 uM/ml.
Take `COc1cc(/C=N/NC(=O)CCc2nc3ccccc3c(=O)[nH]2)cc(OC)c1O`: the IC50 in data set [2] is on record as 275 uM/ml; in data set [3] it was 530 uM/ml; in data set [4] it was 105 uM/ml; in data set [1], 126 uM/ml.
`O=C(O)CCCc1nc2ccccc2c(=O)[nH]1`: the IC50 in data set [1] was found to be 1250 uM/ml.
As for `COC(=O)CCc1nc2ccccc2c(=O)[nH]1.Cl`, the IC50 was determined as 1163 uM/ml in data set [3] and 862 uM/ml in data set [1].
Turning to `COC(=O)CCCc1nc2ccccc2c(=O)[nH]1.Cl`, the IC50 in data set [3] worked out at 975 uM/ml; in data set [4], 280 uM/ml; in data set [1], 772 uM/ml.
As for `O=C(CCc1nc2ccccc2c(=O)[nH]1)N/N=C/c1ccccc1`, the IC50 in data set [4] was 265 uM/ml; in data set [1], 734 uM/ml.
Consider `O=C(CCCc1nc2ccccc2c(=O)[nH]1)N/N=C/c1ccccc1`, for which the results for the IC50 in data set [4] and in data set [1] were 240 uM/ml and 568 uM/ml, respectively.
For `O=C(CCc1nc2ccccc2c(=O)[nH]1)N/N=C/c1ccc(Cl)cc1`, the IC50 worked out at 84 uM/ml in data set [3], 185 uM/ml in data set [4] and 381 uM/ml in data set [1].
On to `O=C(CCCc1nc2ccccc2c(=O)[nH]1)N/N=C/c1ccc(Cl)cc1`, for which the IC50 in data set [3] is 67 uM/ml; in data set [1] it was 353 uM/ml.
For the compound `O=C(CCc1nc2ccccc2c(=O)[nH]1)N/N=C/c1ccc([N+](=O)[O-])cc1`, the IC50 in data set [3] was determined as 54 uM/ml; in data set [4], 220 uM/ml; in data set [1], 328 uM/ml.
On the same counts, the results for `O=C(CCCc1nc2ccccc2c(=O)[nH]1)N/N=C/c1ccc([N+](=O)[O-])cc1` are 52 uM/ml, 270 uM/ml and 316 uM/ml.
`O=C(CCc1nc2ccccc2c(=O)[nH]1)N/N=C/c1ccc(O)cc1`: the IC50 in data set [2] worked out at 300 uM/ml; in data set [4] it was 105 uM/ml; in data set [1], 238 uM/ml.
For the compound `O=C(CCCc1nc2ccccc2c(=O)[nH]1)N/N=C/c1ccc(O)cc1`, the IC50 in data set [4] was determined as 170 uM/ml; in data set [1] it was 214 uM/ml.
On the same counts, the results for `COc1ccc(/C=N/NC(=O)CCc2nc3ccccc3c(=O)[nH]2)cc1` are 75 uM/ml and 214 uM/ml.
Take `COc1ccc(/C=N/NC(=O)CCCc2nc3ccccc3c(=O)[nH]2)cc1`: the IC50 worked out at 280 uM/ml in data set [2], 180 uM/ml in data set [4] and 247 uM/ml in data set [1].
Turning to `O=C(CCc1nc2ccccc2c(=O)[nH]1)N/N=C/c1ccc(O)c(O)c1`, the IC50 is listed as 105 uM/ml in data set [2], 255 uM/ml in data set [3], 40 uM/ml in data set [4] and 113 uM/ml in data set [1].
The like results for `O=C(CCCc1nc2ccccc2c(=O)[nH]1)N/N=C/c1ccc(O)c(O)c1` were, in that order, 75 uM/ml, 300 uM/ml, 50 uM/ml and 95 uM/ml.
On to `COc1cc(/C=N/NC(=O)CCc2nc3ccccc3c(=O)[nH]2)ccc1O`, for which the IC50 in data set [2] stood at 290 uM/ml; in data set [4], 95 uM/ml; in data set [1], 204 uM/ml.
The like results for `COc1cc(/C=N/NC(=O)CCCc2nc3ccccc3c(=O)[nH]2)ccc1O` were, in that order, 280 uM/ml, 115 uM/ml and 236 uM/ml.
Regarding `COc1cc(/C=N/NC(=O)CCCc2nc3ccccc3c(=O)[nH]2)cc(OC)c1O`, the IC50 in data set [2] was 225 uM/ml; in data set [3], 524 uM/ml; in data set [4], 135 uM/ml; in data set [1], 97 uM/ml.
On the same counts, the results for `COc1cc(/C=N/NC(=O)CCc2nc3ccccc3c(=O)[nH]2)cc(O)c1O` are 50 uM/ml, 261 uM/ml, 40 uM/ml and 104 uM/ml.
The like results for `COc1cc(/C=N/NC(=O)CCCc2nc3ccccc3c(=O)[nH]2)cc(O)c1O` were, in that order, 80 uM/ml, 277 uM/ml, 50 uM/ml and 88 uM/ml.
Regarding `COc1cc(/C=N/NC(=O)CCc2nc3ccccc3c(=O)[nH]2)cc(OC)c1OC`, the IC50 in data set [2] amounted to 80 uM/ml; in data set [3], 682 uM/ml; in data set [4], 55 uM/ml; in data set [1] it was 85 uM/ml.
The like results for `COc1cc(/C=N/NC(=O)CCCc2nc3ccccc3c(=O)[nH]2)cc(OC)c1OC` were, in that order, 85 uM/ml, 613 uM/ml, 60 uM/ml and 106 uM/ml.
The like results for `O=C(CCc1nc2ccccc2c(=O)[nH]1)N/N=C/c1cc(O)c(O)c(O)c1` were, in that order, 45 uM/ml, 203 uM/ml, 35 uM/ml and 81 uM/ml.
The like results for `O=C(CCCc1nc2ccccc2c(=O)[nH]1)N/N=C/c1cc(O)c(O)c(O)c1` were, in that order, 45 uM/ml, 183 uM/ml, 40 uM/ml and 78 uM/ml.
As to `O=C1O[C@H]([C@@H](O)CO)C(O)=C1O` [ASCORBIC ACID], the results for the IC50 in data set [2] and in data set [4] were 140 uM/ml and 65 uM/ml, respectively.
Consider `CC(=O)Oc1ccccc1C(=O)O` [ASPIRIN], for which, in data set [3], the IC50 is 166 uM/ml.
For `Cc1cc(C(C)(C)C)c(O)c(C(C)(C)C)c1` [BUTYLATED HYDROXYTOLUENE], in data set [1], the IC50 turned out to be 114 uM/ml.
Take `O=C(O)c1cc(O)c(O)c(O)c1` [GALLIC ACID]: the values for the IC50 in data set [2] and in data set [4] were 100 uM/ml and 60 uM/ml, respectively.

These data come from ChEMBL document CHEMBL3397041, “Schiff's bases of quinazolinone derivatives: Synthesis and SAR studies of a novel series of potential anti-inflammatory and antioxidants” (Bioorg Med Chem Lett, 2015).
